Assay [1] concerns the target T1, human ENPP-1 enzyme (Homo sapiens, UniProt P22413).
T1 construct: purchased R&D Systems
T1 sequence (P22413 1-925): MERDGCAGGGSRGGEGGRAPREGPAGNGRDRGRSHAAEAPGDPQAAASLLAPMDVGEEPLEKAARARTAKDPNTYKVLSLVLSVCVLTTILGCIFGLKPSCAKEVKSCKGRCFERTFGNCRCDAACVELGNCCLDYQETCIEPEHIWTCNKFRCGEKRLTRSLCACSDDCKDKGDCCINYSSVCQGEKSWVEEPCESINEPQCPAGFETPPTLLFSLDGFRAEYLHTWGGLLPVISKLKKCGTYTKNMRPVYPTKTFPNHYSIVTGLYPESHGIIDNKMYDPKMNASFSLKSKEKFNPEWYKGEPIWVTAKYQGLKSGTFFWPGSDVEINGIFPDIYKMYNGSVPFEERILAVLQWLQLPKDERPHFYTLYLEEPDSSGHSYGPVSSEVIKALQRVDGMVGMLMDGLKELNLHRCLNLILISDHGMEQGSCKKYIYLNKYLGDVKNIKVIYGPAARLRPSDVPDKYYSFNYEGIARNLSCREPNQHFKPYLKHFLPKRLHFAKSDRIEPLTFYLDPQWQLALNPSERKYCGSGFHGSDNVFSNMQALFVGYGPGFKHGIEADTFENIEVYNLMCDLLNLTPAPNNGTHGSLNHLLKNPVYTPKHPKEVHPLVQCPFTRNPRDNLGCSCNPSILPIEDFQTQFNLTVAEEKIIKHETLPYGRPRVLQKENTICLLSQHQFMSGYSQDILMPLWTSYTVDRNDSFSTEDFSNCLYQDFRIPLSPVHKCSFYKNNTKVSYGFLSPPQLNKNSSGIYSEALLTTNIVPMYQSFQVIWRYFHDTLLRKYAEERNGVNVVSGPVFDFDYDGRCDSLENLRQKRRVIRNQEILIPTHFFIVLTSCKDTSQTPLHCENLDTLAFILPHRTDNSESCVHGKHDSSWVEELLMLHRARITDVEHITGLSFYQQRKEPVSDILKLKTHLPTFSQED
The assay can be described thus: ENPP1 Enzyme Assay with cGAMP Substrate (AMP-Glo). Format: biochemical. To be noted: 20 μM 2′3′-cGAMP substrate, 5 ng/well enzyme; for inhibition at 10 µM: 10 uM compound; for inhibition at 1 µM: 1 uM compound. The source says: ENPP1 Enzyme Assay with cGAMP Substrate:
Ectonucleotide pyrophosphatase/phosphodiesterase 1 (ENPP-1) is a transmembrane glycoprotein that hydrolyzes nucleotides and nucleotide derivatives with the formation of nucleoside-5′-monophosphates. ENPP-1 hydrolyzes 2′3′-cGAMP (cGAMP), breaking it down into 5′-AMP and 5′-GMP. The 5′-AMP formed from the reaction is detected using the AMP-Glo® Kit (Promega). The assay kit contains two reagents. The first reagent terminates the enzymatic reaction, removes ATP (using adenylyl cyclase), and converts 5′-AMP produced into ADP (using polyphosphate: AMP phosphotransferase). The second reagent converts ADP to ATP (using adenylate kinase) and generates light from ATP using the luciferin/luciferase reaction. The amount of light measured is proportional to the amount of 5′-AMP produced by ENPP1.
Different concentrations of exemplary ENPP1 inhibitors (synthetic molecules #1-7; see Table 1) were pre-incubated with 5 ng/well of human ENPP-1 enzyme (R&D Systems) for 15 minutes at 37° C. The reaction was initiated by adding 20 μM 2′3′-cGAMP and incubating for 30 minutes at 37° C. The final assay reaction mixture contained a buffer of 50 mM Tris pH 8.0, 250 mM NaCl, 0.5 mM CaCl2, 1 μM ZnCl2 and 1% DMSO. At the end of the incubation, the reaction was stopped by adding 12 μl of AMP-Glo reagent-1 and mixing the reaction uniformly for 5 minutes, followed by incubation at room temperature for one hour. Then 25 μl of AMP Glo reagent-2 was added to the reaction, mixed uniformly with a pipette, and incubated at room temperature for one hour to convert the ADP formed from reagent-1 to ATP and light. The generated light was measured in a Perkin Elmer Victor® instrument. Maximal activity control samples (containing enzyme, substrate, and buffer in the absence of ENPP1 inhibitors: MAX) and background control samples (containing enzyme, substrate, and buffer plus a fully inhibitory concentration (3 μM) of the reference ENPP1 Inhibitor, MV-0000002: MIN) were simultaneously evaluated in order to calculate the percent inhibition at each compound concentration as follows:
% inhibition=(([MAX−MIN]−[COMPOUND−MIN])/[MAX−MIN])*100
The IC50 values for percent inhibition versus compound concentration were determined by fitting the inhibition curves using a four-parameter variable slope model in GraphPad Prism® software. Ki values are derived from the IC50 values using the Cheng-Prusoff equation: […]

The target in assay [2] is T1, human ENPP-1 enzyme. The experiment in a line: ENPP1 Enzyme Assay with TMP-pNP Substrate (absorbance at 405 nm). Format: biochemical. To be noted: read-out: TMP-pNP: % inhibition at 10 uM; 10 uM compound; 200 μM TMP-pNP substrate; 15 ng/well enzyme. How it is done: ENPP1 Enzyme Assay with TMP-pNP Substrate:
ENPP-1 hydrolyzes thymidine 5′monophosphate p-nitrophenyl ester (TMP-pNP) to nucleotide-5′-monophosphate and p-nitrophenol, which is a chromogenic product. The amount of p-nitrophenol product formed is measured using its absorbance at 405 nm, which is directly proportional to enzyme activity. Different concentrations of inhibitors (synthetic molecules #1-7; see Table 1) were pre-incubated with 15 ng/well of human ENPP-1 enzyme (R&D Systems) for 15 minutes at 37° C. The reaction was initiated by adding 200 μM TMP-pNP and incubating for 10 minutes at 37° C. […] The amount of product formed was measured directly ina Tecan® spectrophotometer. Maximal activity control samples (containing enzyme, substrate, and buffer in the absence of ENPP1 inhibitors: MAX) and background control samples (containing enzyme, substrate, and buffer plus a fully inhibitory concentration (3 μM) of the reference ENPP1 Inhibitor, MV-0000002: MIN) are simultaneously evaluated in order to calculate the percent inhibition at each compound concentration as follows: […]
The IC50 values for percent inhibition versus compound concentration were determined by fitting the inhibition curves (percent inhibition versus inhibitor concentration) using a four-parameter variable slope model in GraphPad Prism® software. […]

`Cn1ncc2c(N3CCC(CCNS(N)(=O)=O)CC3)ncnc21` [compound 3, N-(2-(1-(1-methyl-1H-pyrazolo[3,4-d]pyrimidin-4-yl)piperidin-4-yl)ethyl)sulfonic amide]: the inhibition (in general, the drop in the measured response relative to a control, in per cent) at 10 µM on human ENPP-1 enzyme [1] was at least 75%. `COc1cc2ncnc(N3CCc4c(cccc4S(N)(=O)=O)C3)c2cc1OC` [compound 6, 2-(6,7-dimethoxyquinazolin-4-yl)-1,2,3,4-tetrahydroisoquinoline-5-sulfonamide] showed an inhibition at 1 µM against human ENPP-1 enzyme [1] of at least 75%. For the compound `COc1cc2ncnc(N3CCC4(CC3)CN(S(N)(=O)=O)C4)c2cc1OC` [compound 5, 7-(6,7-dimethoxyquinazolin-4-yl)-2,7-diazaspiro[3.5]nonane-2-sulfonamide], the inhibition at 10 µM against human ENPP-1 enzyme [1] and at human ENPP-1 enzyme [2] was at least 75% each time. As to `COc1cc2ncnc(NCCc3cccc(NS(N)(=O)=O)c3)c2cc1OC` [compound 7, N-(3-(2-((6,7-dimethoxyquinazolin-4-yl)amino)ethyl)phenyl)sulfonic amide], at human ENPP-1 enzyme [1], the inhibition at 10 µM is at least 75%. With `COc1cc2ncc(C(N)=O)c(N3CCC(CCNS(N)(=O)=O)CC3)c2cc1OC` [compound 2, 6,7-dimethoxy-4-(4-(2-(sulfamoylamino)ethyl)piperidin-1-yl)quinoline-3-carboxamide], the inhibition at 1 µM at human ENPP-1 enzyme [1] is at least 75%. The inhibition at 10 µM at human ENPP-1 enzyme [2] was at least 75%.
